Experimental data: PubChem BioAssay (NCI)
Several values for one entry are separate records, joined by “and”; a condition that tells them apart may be missing. Equal values may be shown once.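 Interpolation was linear, between the two tested concentrations surrounding the appropriate level; five concentrations were tested over 48 hours in 96-well plates. At the GI50, growth is halved. TGI: concentration producing complete growth inhibition.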

How the values were obtained:
Experiment in all cases: growth of human tumour cells (NCI), 48 h
HT29 colon = test system: HT29 colon
MOLT-4 leukemia = test system: MOLT-4 leukemia
NCI-H460 lung = test system: NCI-H460 lung
RXF 393 renal = test system: RXF 393 renal
SF-295 CNS = test system: SF-295 CNS
SK-MEL-28 melanoma = test system: SK-MEL-28 melanoma
SK-MEL-5 melanoma = test system: SK-MEL-5 melanoma
SK-OV-3 ovarian = test system: SK-OV-3 ovarian
SNB-19 CNS = test system: SNB-19 CNS
UACC-257 melanoma = test system: UACC-257 melanoma

| SMILES | GI50 (HT29 colon) [µM] | TGI (HT29 colon) [µM] | GI50 (MOLT-4 leukemia) [µM] | TGI (MOLT-4 leukemia) | GI50 (NCI-H460 lung) [µM] | TGI (NCI-H460 lung) [µM] | GI50 (RXF 393 renal) [µM] | TGI (RXF 393 renal) | GI50 (SF-295 CNS) [µM] | TGI (SF-295 CNS) | GI50 (SK-MEL-28 melanoma) [µM] | TGI (SK-MEL-28 melanoma) | GI50 (SK-MEL-5 melanoma) [µM] | TGI (SK-MEL-5 melanoma) | GI50 (SK-OV-3 ovarian) [µM] | TGI (SK-OV-3 ovarian) [µM] | GI50 (SNB-19 CNS) [µM] | TGI (SNB-19 CNS) [µM] | GI50 (UACC-257 melanoma) [µM] | TGI (UACC-257 melanoma) |
| --- | --- | --- | --- | --- | --- | --- | --- | --- | --- | --- | --- | --- | --- | --- | --- | --- | --- | --- | --- | --- |
| O=C(O)c1ccc2c(c1Nc1ccccc1)C(=O)c1ccccc1C2=O | 98.4 | > 100 | > 100 | > 100 µM | 27.3 | > 100 | 26.3 | > 100 µM | 20.3 | > 100 µM | > 100 | > 100 µM | 73.1 | > 100 µM | 34.2 | > 100 | 49.3 | > 100 | 54.8 | > 100 µM |
| Clc1cc(Cl)c(Cl)c(-c2nc(-c3cccnc3)cs2)c1 | 12.1 | > 100 | 39.1 | > 100 µM | 37.7 | > 100 | 10.9 | 35.2 µM | 26.2 | 70.4 µM | 12.9 | 34.8 µM | 23.6 | > 100 µM | > 100 | > 100 | 66.2 | > 100 | 15.3 | 64.8 µM |
| O=C(Nc1n[nH]c2nc(-c3ccco3)ccc12)C1CC1 | > 25 | > 25 | > 25 | > 25 µM | > 25 | > 25 | > 25 | > 25 µM | > 25 | > 25 µM | > 25 | > 25 µM | > 25 | > 25 µM | > 25 | > 25 | > 25 | > 25 | > 25 | > 25 µM |
| CN(C)CCCN(c1nc(C(Cl)(Cl)Cl)ns1)c1nc(C(Cl)(Cl)Cl)ns1 | 1.69 | 3.37 | 1.93 | 4.23 µM | 1.81 | 3.56 | 1.81 | 3.21 µM | 1.7 | 3.6 µM | 1.9 | 3.5 µM | 1.6 | 2.95 µM | 1.88 | 4 | 2.53 | 7.3 | 1.8 | 3.65 µM |
| CCCc1cc2cc(-n3nc(C)c4c3CC(C)(C)CC4=O)cc(NC3CCC(O)CC3)c2c(=O)[nH]1 (configuration not stated) | 0.0308 | > 100 | 0.186 | > 100 µM | 0.0744 | > 100 | 0.113 | 2.92 µM | 0.307 | 2.06 µM | 0.232 | > 100 µM | 0.241 | 3.56 µM | 0.0892 | > 46.6 | 0.523 | > 100 | 0.372 | > 100 µM |
| COc1ccc2c(c1)CCc1c(-c3noc4c3CCc3cc(OC)ccc3-4)noc1-2 |  | > 100 |  | > 100 µM |  | > 100 |  | > 100 µM |  | > 100 µM |  | > 100 µM |  | > 100 µM |  | > 100 |  | > 100 |  | > 100 µM |
| Cn1ncc2c(/N=C/c3cccs3)[nH]c(=S)nc21 | 52.3 | > 100 | 44.1 | > 100 µM | 31 | > 100 | 26.2 | > 73.3 µM | 41.1 | > 83.3 µM | 56.5 | > 100 µM | 17.9 | 39.9 µM | 80 | > 100 | 49.9 | > 100 | > 65.4 | > 100 µM |
| CN[C@]12CC3(C=CC(=O)C=C3)O[C@@]1(Cc1ccc(OC)cc1)N(C)C(=O)N2 | 1.63 | 6.28 | 2.8 | 9.88 µM | 3.44 | 13.7 | 1.82 | 3.6 µM | 3.74 | 13.6 µM | 2.53 | 6.75 µM | 1.65 | 3.15 µM | 5.12 | 44.2 | 3.63 | 14.5 | 3.52 | 19.8 µM |
| Cc1cc(C)c(O)c(Cc2cccc(Cc3cc(C)cc(C)c3O)c2O)c1 |  | > 100 |  | > 100 µM |  | > 100 |  | > 100 µM |  | > 100 µM |  | > 100 µM |  | > 100 µM |  | > 100 |  | > 100 |  | > 100 µM |
| O=C1/C(=C\C(Cl)=C/c2ccc([N+](=O)[O-])cc2)SC(=S)N1CCc1ccc(O)cc1 | 0.429 | 2.28 | 0.352 | > 100 µM | 1.82 | 4.05 | 0.472 | 1.11 µM | 0.501 | 1.06 µM | 0.626 | 1.96 µM | 1.63 | 3.01 µM | 2.59 | 6.42 | 0.507 | 1.86 | 1.65 | 4.28 µM |
| COc1cc2nc(Sc3c([N+](=O)[O-])ncn3C)[nH]c2cc1OC |  | > 100 |  | 44.4 µM |  | > 100 |  | 43.9 µM |  | > 100 µM |  | > 100 µM |  | 63.6 µM |  | > 100 |  | > 100 |  | 78.3 µM |
| COc1cc2ccc3c4c(OC)cc(OC)c(OC)c4c(=O)n(C)c3c2cc1OC | 1.75 | 4.77 | 0.591 | 10.2 µM and 3.79 µM |  | > 33.5 | 3.44 | 16.7 µM and > 44.7 µM | 0.809 | 2.89 µM and > 22.4 µM | 8.01 | 16.7 µM and > 48.5 µM | 4.11 | 16.7 µM and 35.1 µM |  | > 47.8 |  | > 51.7 | 3.09 | 16.7 µM and > 49.2 µM |
| N.N.N.N.N.N.[I-].[Os] | > 100 | > 100 | > 100 | > 100 µM | > 100 | > 100 | > 100 | > 100 µM | > 100 | > 100 µM | > 100 | > 100 µM | > 100 | > 100 µM | > 100 | > 100 | > 100 | > 100 | > 100 | > 100 µM |
| COc1cc(/C=C2\CN(C)C/C(=C\c3cc(OC)c(OC)c(OC)c3)C2=O)cc(OC)c1OC | 0.214 | 0.505 | 0.323 | 4.5 µM | 0.252 | 0.654 | 0.199 | 0.389 µM | 0.319 | 1.12 µM | 0.2 | 0.429 µM | 0.204 | 0.434 µM | 0.412 | 1.41 | 1.14 | 2.6 | 0.245 | 0.758 µM |
| COc1ccc(-c2cc(=O)c3c(OC)c(OC)c(OC)c(OC)c3o2)cc1OC |  | > 100 |  | 70.3 µM |  | > 100 |  | > 100 µM |  | > 100 µM |  | > 100 µM |  | > 100 µM |  | > 100 |  | > 100 |  | > 100 µM |
| CCOC(=O)c1ccc(N(CCOS(C)(=O)=O)CCOS(C)(=O)=O)cc1C | 26.3 | > 100 | 7.01 | > 100 µM | 27.8 | > 100 | 17.8 | 33.3 µM | 21.9 | > 100 µM | > 100 | > 100 µM | 35.9 | > 100 µM | 33.6 | > 100 | 62.6 | > 100 | 69.6 | > 100 µM |
| CCOC(=O)/C(=C/c1ccc([N+](=O)[O-])cc1)C(=O)c1ccccc1 | 2.05 | 3.83 | 3.01 | 9.38 µM | 2.69 | 7.15 | 2 | 3.67 µM | 2.78 | 8.5 µM | 2.1 | 4.73 µM | 1.94 | 3.62 µM | 11.5 | 23.6 | 2.4 | 5.81 | 3.12 | 7.61 µM |
| Cc1n[nH]c(=S)n1/N=C/c1ccc(F)c(Oc2ccccc2)c1 | 27.5 | > 100 | 47.6 | > 100 µM | 39 | > 100 | > 100 | > 100 µM | 57.8 | > 100 µM | 7.1 | 82.6 µM | 16.1 | 33.4 µM | > 100 | > 100 | 55.9 | > 100 | 25.4 | 75.3 µM |
| C=C1C(=O)O[C@H]2[C@H]1CC/C(COC(=O)CCCCCCCCC(=O)OC/C1=C/CC[C@@]3(C)O[C@H]3[C@H]3OC(=O)C(=C)[C@@H]3CC1)=C\CC[C@@]1(C)O[C@@H]21 | 2.08 | 4.12 | 2.58 | 13.7 µM | 2.14 | 4.4 | 1.86 | 3.42 µM | 2.56 | 8.09 µM | 2.34 | 6.04 µM | 1.91 | 3.48 µM | 12 | 25.2 | 2.45 | 6.51 | 2.25 | 4.41 µM |
| COc1ccc(-c2cnc3ccnn3c2-c2cc(OC)c(OC)c(OC)c2)cc1 | 3.01 | > 100 | 4.62 | > 100 µM | 3.39 | > 100 | 2.6 | > 100 µM | 1.93 | 20 µM | 10 | > 100 µM | 4.53 | > 100 µM | 4.63 | > 100 | 5.16 | > 100 | 91.6 | > 100 µM |
